In PubChem BioAssay (NCI):
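Where inhibition never reached the appropriate level, the endpoint shown equals the highest concentration tested. Otherwise, values were interpolated linearly from a five-concentration, 48-hour dose response in 96-well plates. Abbreviation: GI50, concentration required for 50% inhibition of growth. The concentration for full growth arrest is given as TGI.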

Experiments:
Assay in all cases: growth of human tumour cells (NCI), 48 h
T-47D breast = tested on: T-47D breast
DU-145 prostate = tested on: DU-145 prostate
HOP-62 NSCLC = tested on: HOP-62 NSCLC
COLO 205 colon = tested on: COLO 205 colon
CCRF-CEM leukemia = tested on: CCRF-CEM leukemia
BT-549 breast = tested on: BT-549 breast
SNB-19 CNS = tested on: SNB-19 CNS
MDA-MB-435 = tested on: MDA-MB-435

## C[C@]12CC[C@@H]3c4ccc(O)cc4CC[C@H]3[C@@H]1CC[C@@H]2NS(=O)(=O)c1cccc(F)c1
T-47D breast
  GI50: 3.82 µM
  TGI: 14.8 µM
DU-145 prostate
  GI50: 5.45 µM
  TGI: 17.9 µM
HOP-62 NSCLC
  GI50: 7.38 µM
  TGI: 21.9 µM
COLO 205 colon
  GI50: 1.85 µM
  TGI: 3.61 µM
CCRF-CEM leukemia
  GI50: 3.28 µM
  TGI: 18.6 µM
BT-549 breast
  GI50: 2.82 µM
  TGI: 8.46 µM
SNB-19 CNS
  GI50: 5.5 µM
  TGI: 18.3 µM
MDA-MB-435
  GI50: 2.58 µM
  TGI: 8.77 µM

## CN(CCCNC(=O)Cc1ccc2ccc3cccc4ccc1c2c34)CCCNc1cc(-c2ccc3ccccc3c2)nc2ccccc12
T-47D breast
  GI50: 2.04 µM
  TGI: 4.19 µM
DU-145 prostate
  GI50: 1.55 µM
  TGI: 2.89 µM
HOP-62 NSCLC
  GI50: 1.71 µM
  TGI: 3.26 µM
COLO 205 colon
  GI50: 1.42 µM
  TGI: 2.83 µM
SNB-19 CNS
  GI50: 1.74 µM
  TGI: 3.18 µM
MDA-MB-435
  GI50: 1.44 µM
  TGI: 3.05 µM

## CC(C)CNC(=O)O
T-47D breast
  TGI: > 100 µM
DU-145 prostate
  TGI: > 100 µM
HOP-62 NSCLC
  TGI: > 100 µM
COLO 205 colon
  TGI: > 100 µM
CCRF-CEM leukemia
  TGI: > 100 µM
BT-549 breast
  TGI: > 100 µM
SNB-19 CNS
  TGI: > 100 µM
MDA-MB-435
  TGI: > 100 µM

## CCCCC1(CN2CCOCC2)S/C(=N/c2nc(CC(=O)OCC)cs2)NC1=O (configuration not stated)
T-47D breast
  GI50: 41.5 µM
  TGI: > 100 µM
DU-145 prostate
  GI50: 27 µM
  TGI: > 100 µM
HOP-62 NSCLC
  GI50: 44.7 µM
  TGI: > 100 µM
COLO 205 colon
  GI50: 30.1 µM
  TGI: > 100 µM
BT-549 breast
  GI50: 41.8 µM
  TGI: > 100 µM
SNB-19 CNS
  GI50: 38.4 µM
  TGI: > 100 µM
MDA-MB-435
  GI50: 30.3 µM
  TGI: > 100 µM

## N=C(N)SCc1cccc(-c2nc3ccccc3c(=O)o2)c1
T-47D breast
  TGI: > 100 µM
DU-145 prostate
  TGI: > 100 µM
HOP-62 NSCLC
  TGI: > 100 µM
COLO 205 colon
  TGI: > 100 µM
BT-549 breast
  TGI: > 100 µM
SNB-19 CNS
  TGI: > 100 µM
MDA-MB-435
  TGI: > 100 µM

## CCOC(=O)c1c[nH]c2oc(/C=N/N3CC(CN4CCOCC4)OC3=O)cc2c1=O (configuration not stated)
T-47D breast
  TGI: > 100 µM
DU-145 prostate
  TGI: > 100 µM
HOP-62 NSCLC
  TGI: > 100 µM
COLO 205 colon
  TGI: > 100 µM
CCRF-CEM leukemia
  TGI: > 100 µM
SNB-19 CNS
  TGI: > 100 µM
MDA-MB-435
  TGI: > 100 µM

## O=[N+]([O-])c1ccc2c(c1)C(c1ccccc1Cl)=Nc1cn[nH]c1N2
T-47D breast
  GI50: 14 µM
  TGI: > 25 µM
DU-145 prostate
  GI50: 20.4 µM
  TGI: > 25 µM
HOP-62 NSCLC
  GI50: > 20.7 µM
  TGI: > 25 µM
COLO 205 colon
  GI50: 9.43 µM
  TGI: > 25 µM
CCRF-CEM leukemia
  GI50: 8 µM
  TGI: > 25 µM
BT-549 breast
  GI50: 16.2 µM
  TGI: > 25 µM
SNB-19 CNS
  GI50: > 25 µM
  TGI: > 25 µM
MDA-MB-435
  GI50: 15.1 µM
  TGI: > 25 µM

## Cc1c(C2=C(Br)C(=O)N(C)C2=O)c(=O)n(C)c(=O)n1C
T-47D breast
  TGI: 42.6 µM
DU-145 prostate
  TGI: 80.9 µM
HOP-62 NSCLC
  TGI: > 100 µM
COLO 205 colon
  TGI: 34.5 µM
CCRF-CEM leukemia
  TGI: 48 µM
BT-549 breast
  TGI: 51.1 µM
SNB-19 CNS
  TGI: > 100 µM
MDA-MB-435
  TGI: 58.6 µM

## C=C1C(=O)O[C@H]2/C=C(/C)C3=CC(=O)[C@@](C)(C[C@@H](OC(=O)/C(C)=C\C)C12)O3 (some centres not stated)
DU-145 prostate
  TGI: 8.99 µM
HOP-62 NSCLC
  TGI: > 100 µM
BT-549 breast
  TGI: 3.11 µM
SNB-19 CNS
  TGI: 29.7 µM
MDA-MB-435
  TGI: 6.02 µM

## COc1ccc2c(c1)C(C)Cc1c(ncnc1-n1c(C)nc3ccccc31)N2C (configuration not stated)
T-47D breast
  GI50: 6.5 µM
  TGI: 49.9 µM
DU-145 prostate
  GI50: 3.27 µM
  TGI: 13.4 µM
HOP-62 NSCLC
  GI50: 4.23 µM
  TGI: 24.6 µM
COLO 205 colon
  GI50: 2.76 µM
  TGI: 11.1 µM
CCRF-CEM leukemia
  GI50: 2.85 µM
  TGI: 16.4 µM
BT-549 breast
  GI50: 5.82 µM
  TGI: 30.6 µM
SNB-19 CNS
  GI50: 4.45 µM
  TGI: 23.1 µM
MDA-MB-435
  GI50: 0.315 µM
  TGI: 1.89 µM

## COc1ccc(-c2c[nH]c(=S)n2-c2ccc(OC)cc2)cc1
DU-145 prostate
  GI50: > 50 µM
  TGI: > 50 µM
HOP-62 NSCLC
  GI50: > 50 µM
  TGI: > 50 µM
COLO 205 colon
  GI50: > 50 µM
  TGI: > 50 µM
BT-549 breast
  GI50: > 50 µM
  TGI: > 50 µM
SNB-19 CNS
  GI50: > 50 µM
  TGI: > 50 µM
MDA-MB-435
  GI50: > 50 µM
  TGI: > 50 µM

## O=C(Nc1ccc(Br)cc1)c1ccc(Cl)c(Cl)c1
T-47D breast
  GI50: 2 µM
  TGI: > 27.9 µM
DU-145 prostate
  GI50: 3.86 µM
  TGI: > 100 µM
HOP-62 NSCLC
  GI50: 3.86 µM
  TGI: > 52.3 µM
COLO 205 colon
  GI50: 1.81 µM
  TGI: 3.7 µM
CCRF-CEM leukemia
  GI50: 4.81 µM
  TGI: > 100 µM
BT-549 breast
  GI50: 2.74 µM
  TGI: > 29.8 µM
SNB-19 CNS
  GI50: 3.87 µM
  TGI: > 100 µM

## CCC(C)(C)c1ccc(OCCCCCCN2CCNCC2)cc1
T-47D breast
  GI50: 1.72 µM
  TGI: 3.78 µM
DU-145 prostate
  GI50: 2.39 µM
  TGI: 6.06 µM
HOP-62 NSCLC
  GI50: 2.32 µM
  TGI: 6.09 µM
COLO 205 colon
  GI50: 1.77 µM
  TGI: 3.51 µM
CCRF-CEM leukemia
  GI50: 1.43 µM
  TGI: 4.64 µM
MDA-MB-435
  GI50: 1.54 µM
  TGI: 3.09 µM

## CN(C)C(=S)/N=c1\ss/c(=N\C(=S)N(C)C)n1-c1ccc(Cl)c(Cl)c1
HOP-62 NSCLC
  TGI: > 100 µM
COLO 205 colon
  TGI: > 100 µM
CCRF-CEM leukemia
  TGI: > 100 µM
SNB-19 CNS
  TGI: > 100 µM

## N#CC(=NCCO)C1=C(O)c2ccccc2C1=O
T-47D breast
  TGI: > 100 µM
DU-145 prostate
  TGI: > 100 µM
HOP-62 NSCLC
  TGI: > 100 µM
COLO 205 colon
  TGI: > 100 µM
BT-549 breast
  TGI: > 100 µM
SNB-19 CNS
  TGI: > 100 µM
MDA-MB-435
  TGI: > 100 µM

## Cc1cc(I)cc(CN(C)CCCN2CCOCC2)c1O
T-47D breast
  GI50: 29.1 µM
  TGI: > 100 µM
DU-145 prostate
  GI50: > 100 µM
  TGI: > 100 µM
HOP-62 NSCLC
  GI50: 38.6 µM
  TGI: > 100 µM
COLO 205 colon
  GI50: 14.1 µM
  TGI: 29 µM
BT-549 breast
  GI50: 13.9 µM
  TGI: 85.5 µM
SNB-19 CNS
  GI50: 67.7 µM
  TGI: > 100 µM
MDA-MB-435
  GI50: 26 µM
  TGI: > 100 µM

## Cc1ccc(S(=O)(=O)NCCNc2nccc(-c3c(-c4ccc(F)cc4)nc4sccn34)n2)cc1
T-47D breast
  GI50: 3.85 µM
  TGI: > 100 µM
HOP-62 NSCLC
  GI50: 13.5 µM
  TGI: 29.3 µM
BT-549 breast
  GI50: 5.83 µM
  TGI: 36 µM
SNB-19 CNS
  GI50: 9.41 µM
  TGI: 48.4 µM

## Cc1cc(S(=O)(=O)N/N=C(\Sc2cc(Cl)c(C)cc2S(N)(=O)=O)c2ccc(Cl)cc2)c(Cl)cc1Cl
DU-145 prostate
  GI50: > 100 µM
  TGI: > 100 µM
HOP-62 NSCLC
  GI50: > 100 µM
  TGI: > 100 µM
COLO 205 colon
  GI50: > 100 µM
  TGI: > 100 µM
CCRF-CEM leukemia
  GI50: 36.8 µM
  TGI: > 100 µM
BT-549 breast
  GI50: 61.8 µM
  TGI: > 100 µM
SNB-19 CNS
  GI50: > 100 µM
  TGI: > 100 µM
MDA-MB-435
  GI50: > 100 µM
  TGI: > 100 µM

## O=C(COc1ccc(/C=C2\CSc3ccccc3C2=O)cc1)Nc1nccs1
T-47D breast
  GI50: 13.5 µM
  TGI: 42.4 µM
DU-145 prostate
  GI50: 4.2 µM
  TGI: 14.3 µM
HOP-62 NSCLC
  GI50: 16.3 µM
  TGI: 30.8 µM
COLO 205 colon
  GI50: 14.1 µM
  TGI: 27.1 µM
CCRF-CEM leukemia
  GI50: 2.01 µM
  TGI: 9.09 µM
SNB-19 CNS
  GI50: 13.4 µM
  TGI: 26.2 µM
MDA-MB-435
  GI50: 3.31 µM
  TGI: 15.1 µM

## Cc1cc2c(cc1Cl)SC(=Nc1ccc(Cl)cc1)N(S(=O)(=O)c1ccccc1)S2(=O)=O
DU-145 prostate
  GI50: 12.6 µM
  TGI: 25.1 µM
HOP-62 NSCLC
  GI50: 13.5 µM
  TGI: 26.4 µM
COLO 205 colon
  GI50: 2.89 µM
  TGI: > 100 µM
CCRF-CEM leukemia
  GI50: 4.92 µM
  TGI: 27.4 µM
BT-549 breast
  GI50: 11.1 µM
  TGI: 24.5 µM
SNB-19 CNS
  GI50: 20.6 µM
  TGI: > 100 µM
MDA-MB-435
  GI50: 5.18 µM
  TGI: 19.6 µM
